Source: patent US20100215653A1, “METHODS OF TREATING NEOPLASTIC, AUTOIMMUNE AND INFLAMMATORY DISEASES” (Seattle Genetics, Inc., priority 2006, published 2010)

Tests used:
[1] = system: primary human macrophages; assay: Macrophage migration in response to chemoattractants (CytoSelect Cell Migration Assay); assay type: cell-based; conditions: 10% human serum or 20% conditioned media from RPMI 8226 cells; p<0.05 (FIG. 21)
Procedure: (§1) The migration of macrophages in response to challenge with plating media containing 10% human serum, 20% conditioned tumor cell media, or 50 ng/ml TGF-β, VEGF, TNF-α, or IFN-γ was evaluated using the CytoSelect Cell Migration Assay (Cell Biolabs, San Diego, Calif.). […] The study was stopped 18 hours later and migration was evaluated after dissociation of the cells from the membrane followed by detection with Cyquant GR dye.
as §1, with “serum or” for “serum,”, “media” for “media, or 50 ng/ml TGF-β, VEGF, TNF-α, or IFN-γ”, “studies were” for “study was”, “h” for “hours”

[2] = Effector function (ADCC or CDC activity), data not shown; assay type: cell-based
CD33 [3] = target: T1, CD33 (Homo sapiens, UniProt P20138); assay: Recruitment of SHP-1 / SHP-2 / Syk to CD33 (CD33 immunoprecipitation, Western blot); assay type: cell-based; design: endogenous in cells; host or cells: HL-60, U937; primary human CD14+ monocytes and PBMC-derived macrophages; conditions: HL-60 and monocytes; 30 minutes (FIG. 16)
Procedure: To determine whether the humanized M195 antibody also recruits SHP phosphatases, HL-60 cells were treated with soluble or cross-linked anti-CD33 antibodies. Cell extracts were prepared and CD33 was immunoprecipitated with an anti-CD33 antibody (MY9 clone). Western blotting was performed with an anti-SHP-1 antibody (sc-287; Santa Cruz Biotechnology, Inc., Santa Cruz, Calif.).
(§2) To prepare deglycosylated SGN-33, the antibody was treated with PN-glycosidase F (New England BioLabs, Ipswich, Mass.). Deglycosylation was confirmed by CE-SDS. […] Cell lysates were prepared and CD33 immunoprecipitated using an anti-CD33 rabbit polyclonal antibody (Santa Cruz Biotechnology, Santa Cruz, Calif.) prior to SDS PAGE gel electrophoresis. Western blot analyses of these samples were performed using the 4G10 phosphotyrosine antibody (Upstate Biotechnology, Temucula, Calif.), anti-CD33 antibody (NovoCastra, Norwell, Mass.), and anti-SHP-1 antibody (Calbiochem, San Diego, Calif.). Control lysate for SHP-1 was prepared from a B cell lymphoma cell line.

CD33 [4] = target: T1, CD33; assay: CD33 tyrosine phosphorylation (CD33 immunoprecipitation, anti-phosphotyrosine Western blot); assay type: cell-based; design: endogenous in cells; host or cells: HL-60, U937; primary human CD14+ monocytes and PBMC-derived macrophages; conditions: HL-60 AML cells (FIG. 16)
Procedure: CD33-positive cell lines were treated with anti-CD33 antibodies (lintuzumab and certain commercially available antibodies). Cell extracts were prepared and CD33 was immunoprecipitated using an anti-CD33 antibody (MY9 clone; Beckman Coulter, Calif.). Western blotting was performed with an anti-phosphotyrosine antibody (4G10; Upstate Biotechnologies, Inc., Lake Placid, N.Y.).
as §2, with “Deglycosylation” for “To prepare deglycosylated SGN-33, the antibody was treated with PN-glycosidase F (New England BioLabs, Ipswich, Mass.). Deglycosylation”

[5] = target: CD33 on human cells (AML cell lines HL60, KG-1, HEL9217, TF1-alpha, U937; primary human monocytes and macrophages) (human) (UniProt P20138); assay: apparent Kd, saturation binding by flow cytometry on HEL9217 cells
[6] = target: CD33 on human cells (AML cell lines HL60, KG-1, HEL9217, TF1-alpha, U937; primary human monocytes and macrophages) (human) (UniProt P20138); assay: apparent Kd, saturation binding by flow cytometry on TF1-alpha cells
[7] = target: CD33 on human cells (AML cell lines HL60, KG-1, HEL9217, TF1-alpha, U937; primary human monocytes and macrophages) (human) (UniProt P20138); assay: apparent Kd, saturation binding by flow cytometry on KG-1 cells
[8] = target: CD33 on human cells (AML cell lines HL60, KG-1, HEL9217, TF1-alpha, U937; primary human monocytes and macrophages) (human) (UniProt P20138); assay: apparent Kd, saturation binding by flow cytometry on HL60 cells
HL-60 cells = assay: HL-60 disseminated AML model in mice; assay type: in vivo; conditions: low doses of cytarabine alone (FIG. 22)
Procedure: Mice were implanted with an AML cell line, HL-60, as follows: 5 million HL-60 cells were injected intravenously. The mice were treated with lintuzumab (10 mg/kg, q4dx4, ip), cytarabine (1 mg/kg, 5 mg/kg or 25 mg/kg, q1dx10, ip; or 50 mg/kg or 100 mg/kg, q2dx5, ip) or lintuzumab with cytarabine (dosed as described previously). Treatment began on day one. Referring to FIG. 22, the control mice or mice treated with placebo (0.9% saline) were removed from the study by day 80, due to tumor progression.
To confirm the data of the in vitro study, mice were implanted with an AML cell line, HL-60, as follows: 5 million HL-60 cells were injected intravenously. […] Treatment began on day one. Referring to FIG. 24, the control mice were removed from the study by about day 60 due to tumor progression. Mice treated with lenalidomide were removed from study by about day 90 for similar reasons.
The MDR-negative HL60 cell line and the MDR-positive HEL9217 and TF1-α cell lines were used. […] Disease symptoms typically developed between about 35 and about 80 days, and included hind limb paralysis, scruffy coat, weight loss, palpable tumors, and/or tumor masses in bone, peritoneal cavity, or soft tissues. Human CD33+ tumor cells were detected in the blood, bone marrow, and lymph nodes of the majority of the mice by flow cytometry (FIG. 25). Solid tumors associated with bone or soft tissues were found in 20 to 60% of the mice.

HEL 92.1.7 cells = assay: Complement-dependent cytotoxicity (CDC) activity; assay type: cell-based, human; conditions: HEL 92.1.7 cells preincubated 2 hours with drug before HuM195
Procedure: The purpose of this study was to determine whether the cytotoxic effects of an anti-CD33 antibody (HuM195) on AML cells could be enhanced by combination treatment with chemotherapeutic drugs. An MDR^+, CD33-positive AML cell line (HEL 92.1.7) was either untreated or preincubated with the indicated concentrations of thalidomide or 5-azacytidine for two hours prior to exposure to the anti-CD33 Ab. Cytotoxic activity was measured using a complement-dependent cytotoxicity (CDC) activity.

[9] = system: AML tumor cells (KG-1 HEL9217, and TF1α); assay: ADCC, 51Cr release assay with NK effector cells; assay type: cell-based, human; conditions: NK cells pre-treated 2 to 3 h with drug before addition to target cells (FIG. 23)
Procedure: Target AML tumor cells (KG-1 HEL9217, and TF1α) were labeled with Na^51CrO4 and mixed with enriched CD16^+ effector (NK) cells, prepared using PBMCs from normal donors. The effector to target cell ratio was 10:1. […] Macrophages were labeled with CD11b−FITC or CD14-FITC antibody. Flow cytometric analyses of dual labeled (PKH67+CD11b+ or PKH67+CD14+) cells was used to determine specific uptake (phagocytosis). […] Media were collected 18 h later and analyzed by ELISA for IL-8 or MCP-1.
Viable NK cells were pre-treated for 2 to 3 h with lenalidomide or thalidomide (as described in FIG. 23) prior to addition to target cells.

CD33 on human cells (AML cell lines HL60, KG-1, HEL9217, TF1-alpha, U937; primary human monocytes and macrophages) (human), sequence (P20138 18-364): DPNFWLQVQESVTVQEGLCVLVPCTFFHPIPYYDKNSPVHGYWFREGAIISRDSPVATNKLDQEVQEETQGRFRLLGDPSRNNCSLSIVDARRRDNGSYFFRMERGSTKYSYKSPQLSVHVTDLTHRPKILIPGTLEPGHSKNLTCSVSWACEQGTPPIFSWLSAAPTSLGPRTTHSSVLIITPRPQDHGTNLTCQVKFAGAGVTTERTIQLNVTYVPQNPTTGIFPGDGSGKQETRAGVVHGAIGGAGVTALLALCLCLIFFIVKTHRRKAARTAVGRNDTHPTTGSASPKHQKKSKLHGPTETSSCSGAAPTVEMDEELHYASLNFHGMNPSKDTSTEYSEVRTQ
T1 sequence (P20138 18-364): as above

Molecule: deglycosylated SGN-33: SGN-33 treated with PN-glycosidase F; does not interact with Fc receptors
- macrophage migration [1]: significantly reduced the migration
- effector function, including ADCC or CDC activity [2]: did not mediate effector function
- recruitment of SHP-1 to the CD33 complex (CD33 [3]): resulted in recruitment of SHP-1 to the CD33 complex
- phosphorylation of CD33 (CD33 [4]): induced phosphorylation of CD33

Molecule: SGN-33, humanized M195 anti-CD33 antibody
- Kd [5]: 0.144 nM
- Kd [6]: 0.099 nM
- Kd [7]: 0.07 nM
- Kd [8]: 0.123 nM

Molecule: Nc1ccn([C@@H]2O[C@H](CO)[C@@H](O)[C@@H]2O)c(=O)n1 [cytarabine, reference compound]
- percent survival rates compared to untreated controls (HL-60 cells): increasing percent survival rates

Molecule: O=C1CCC(N2C(=O)c3ccccc3C2=O)C(=O)N1 (stereo not shown) [thalidomide, reference compound]
- sensitivity to HuM195-mediated CDC activity after preincubation with drug (HEL 92.1.7 cells): enhanced the sensitivity
- effect on SGN-33 mediated ADCC [9]: enhanced SGN-33 mediated ADCC

Molecule: Nc1cccc2c1CN(C1CCC(=O)NC1=O)C2=O (stereo not shown) [lenalidomide, reference compound]
- effect on SGN-33 mediated ADCC [9]: enhanced SGN-33 mediated ADCC

Molecule: Nc1ncn([C@@H]2O[C@H](CO)[C@@H](O)[C@H]2O)c(=O)n1 [5-azacytidine]
- sensitivity to HuM195-mediated CDC activity after preincubation with drug (HEL 92.1.7 cells): enhanced the sensitivity
